Results taken from paper PMC10714400, “Antimicrobial Peptide–Peptoid Hybrids with and without Membrane Disruption” (ACS Infectious Diseases, 2023).
Entries after “also recorded” stand apart in the source; their conditions may differ. Where a SMILES comes first, the peptide text is derived from it. [ ]: non-standard residue; d: D form. Nleu = CC(C)CNCC(=O)O; Nlys = NCCCCNCC(=O)O

Columns and labels:
A549 cells = assay: Cell viability assay by Alamar blue; assay type: cell-based; conditions: CSV; read-out: Toxicity on A549 lung cancern cells
Procedure: The data are represented as the mean value ± SD, n = 3. […] (c) Vesicle leakage assay for a selection of compounds. Lipid vesicles made of EYPG or EYPC were suspended in a buffer (10 mM TRIS, 107 mM NaCl, pH 7.4). After 45 s, the indicated compound was added to reach the desired concentration. After 240 s, 30 μL of 1.2% TritonX-100 was added for full fluorescein release. […] See Supporting Information for the full curves, all of the data, and procedures.
HEK293 cells were cultured and maintained in DMEM high glucose (Dulbecco’s modified Eagle medium, Sigma Aldrich) medium supplemented with 10% FBS (Sigma Aldrich) and 1% penicillin/streptomycin. A549 cells were cultured and maintained in RPMI-1640 medium (Sigma Aldrich), supplemented with 10% FBS (Sigma Aldrich) and 1% penicillin/streptomycin. The cells were handled and subcultured according to the manufacturer instructions. Cells were incubated in a humidified incubator at 37 °C in the presence of 5% CO2.
Assays on HEK293, A549 cells were performed as described earlier.[74] […]

[1] = Lipid vesicle leakage assay; conditions: 10 mM TRIS, 107 mM NaCl, pH 7.4; for Vesicle leakage activity on EYPC vesicles: egg yolk phosphatidyl choline vesicles; for Vesicle leakage activity on EYPG vesicles: fluorescein-loaded anionic EYPG vesicles
Procedure: (c) Vesicle leakage assay for a selection of compounds.
EYPG - EB11 1 EYPC - EB11
Figure S2: Vesicle leakage experiments using 5(6)-carboxyfluorescein induced by peptides. EYPG and EYPC
compound was added after 45 sec. After 240 seconds, 30 µL Triton X-100 1.2% was added for full release of […]

P. aeruginosa PAO1 [2] = assay: NPN outer membrane permeability assay; assay type: cell-based, Pseudomonas aeruginosa
Procedure: (§1) Figure 5 Interactions of peptide–peptoid hybrids with bacterial outer and inner membranes of P. aeruginosa. (a, b) NPN outer membrane permeability assay. P. aeruginosa PAO1 bacteria were treated with increasing compound concentrations in the presence of 10 μM NPN. The fluorescence intensity (λex = 340 nm, λem = 415 nm) was measured within 5 min. Data represent the mean ± SD, n = 3. (c, d) DiSC3(5) inner membrane depolarization assay. P. aeruginosa PAO1 cells were treated with increasing compound concentrations in the presence of 2 μM DiSC3(5). The fluorescence intensity (λex = 610 nm, λem = 660 nm) was measured within 5 min after treatment, and the data represent mean ± SD, n = 3.
A single colony of P. aeruginosa PAO1 and E. coli W3110 was grown overnight while being shaken (150 rpm) in LB-broth (5 mL) at 37 °C. 100 μL of the overnight culture was regrown in 10 mL of LB broth with shaking (200 rpm) to the exponential phase (OD600 = 1, corresponding to 10^9 CFU/mL). Bacteria were washed three times with HEPES buffer (5 mM HEPES, 5 mM glucose, pH 7.4), but not diluted yet to their final concentration. 200 μL of peptide samples was added to the first well of 96-well plates (black wells, flat bottom, BRAND GmbH Wertheim, Germany), 100 μL of HEPES/glucose buffer with 10 μM N-phenyl-1-naphthylamine (NPN, purchased from Acros Organics) was added in all the wells, and the compounds were diluted serially by 1/2 (add a control with a final volume of 200 μL with 10 μM NPN in buffer only). Ca. 10 min before the measurement and the final dilution of the bacteria, the plates and the 10 μM NPN in HEPES/glucose buffer (for bacteria dilution) were incubated at 37 °C (prior to the dilution of the bacteria with buffer containing NPN 10 μM). Later, the bacteria were diluted to OD600 = 0.5 with the NPN in HEPES/glucose buffer. 100 μL of the bacterial suspension was added to each well. In this case, the final OD of bacteria was 0.25, the final concentration of the desired compound 64 μg/mL, and NPN 10 μM. The control wells are buffer containing NPN (10 μM, 200 μL) and bacterial suspension containing NPN in HEPES buffer. The plate was measured with a Tecan instrument Infinite M1000 within 5 min. The plate was enabled to shake for 5 s before measurement. The excitation wavelength used was 340 ± 5 nm, and emission wavelength was 415 ± 5 nm. The assay was repeated at least three times.

E. coli W3110 = assay: Time–kill assay; assay type: cell-based, Escherichia coli
Source text: (§2) Figure 1 Killing profile of selected compounds on bacteria a) against E. coli W3110 measured in full MH at pH 7.4, b) against P. aeruginosa PAO1 in full MH at pH 7.4, c) against E. coli W3110 in diluted MH at pH 8.5, and d) against P. aeruginosa PAO1 in dilute MH at pH 8.5. The assay was repeated twice in triplicate, and the data represent the mean ± SD, n = 6.

P. aeruginosa PAO1 [3] = assay: Time–kill assay; assay type: cell-based, Pseudomonas aeruginosa
Source text: as §2

P. aeruginosa PAO1 [4] = assay: DiSC3(5) inner membrane depolarization assay; assay type: cell-based, Pseudomonas aeruginosa; conditions: P. aeruginosa PAO1, 2 μM DiSC3(5)
Procedure: as §1
A single colony of P. aeruginosa PAO1 and E. coli W3110 was grown overnight with shaking (150 rpm) in LB broth (5 mL) at 37 °C. A 100 μL portion of the overnight culture was regrown in 10 mL of LB broth with shaking (200 rpm) to the exponential phase (OD600 = 1, corresponding to 10^9 CFU/mL). Bacteria were washed once with HEPES buffer (5 mM HEPES, 5 mM glucose, pH 7.4) and diluted to an OD600 = 0.5. Stock solution of 10 mM of 3,3′-dipropylthiadicarbocyanine iodide (DiSC3(5), purchased from Sigma) was prepared in DMSO. Stock solutions of 2 mg/mL of the compounds were prepared in sterilized milli-Q water and diluted to the beginning concentration of 128 μg/mL in 200 μL of HEPES buffer containing 4 μM of the fluorescent probe DiSC3(5). The diluted samples were added to the first well of 96-well plates (black wells, flat bottom, BRAND GmbH Wertheim, Germany) and diluted serially by 1/2. 100 μL of the bacterial suspension in HEPES buffer (without fluorophore) was added to each well. In this case, the final OD of bacteria was 0.25, the final concentration of peptide in the first column was 64 μg/mL, and DiSC3(5) was 2 μM. The control wells are buffer containing DiSC3(5) and bacterial suspension containing DiSC3(5) in HEPES buffer. The plate was measured with a Tecan instrument Infinite M1000 within 5 min. […] The assay was measured in triplicate and repeated at least two times.[65],[75]

[5] = E. coli W3110, diluted MH at pH 8.5
[6] = P. aeruginosa PAO1, dilute MH at pH 8.5

Row | Compound | IC50 (A549 cells) | Vesicle leakage activity on EYPC vesicles [1] | Vesicle leakage activity on EYPG vesicles [1] | Outer membrane permeabilization (NPN) (P. aeruginosa PAO1 [2]; not told) | Time–kill, killing profile (E. coli W3110; E. coli W3110, full MH at pH 7.4) | Time–kill, killing profile (P. aeruginosa PAO1 [3]; P. aeruginosa PAO1, full MH at pH 7.4) | Inner membrane depolarization (DiSC3(5)) (P. aeruginosa PAO1 [4]) | Time–kill, killing profile (E. coli W3110; [5]) | Time–kill, killing profile (P. aeruginosa PAO1 [3]; [6]) | Outer membrane permeabilization (NPN) (P. aeruginosa PAO1 [2]; P. aeruginosa PAO1, 10 μM NPN)
1 | CC(C)C[C@H](NC(=O)[C@H](CCCCN)NC(=O)CNCCCCN)C(=O)N[C@@H](CC(C)C)C(=O)N[C@@H](CCCCN)C(=O)N[C@@H](CC(C)C)C(=O)N[C@@H](CC(C)C)C(=O)N[C@@H](CCCCN)C(=O)N[C@@H](CC(C)C)C(=O)N[C@@H](CC(C)C)C(=O)N(CC(N)=O)CC(C)C [EB1] (H-[Nlys]KLLKLLKLL[Nleu]-NH2; N-terminus assumed) | 69 ± 2 µM | very low levels of activity | very strong activities | – | – | – | – | – | – | –
2 | CC(C)C[C@H](NC(=O)[C@H](CC(C)C)NC(=O)[C@H](CC(C)C)NC(=O)[C@H](CCCCN)NC(=O)[C@H](CC(C)C)NC(=O)[C@H](CC(C)C)NC(=O)CN(CCCCN)C(=O)CN(CC(C)C)C(=O)CN(CC(C)C)C(=O)CN(CCCCN)C(=O)CNCCCCN)C(N)=O [EB5, kkllkLLKLLL] (H-[Nlys][Nlys][Nleu][Nleu][Nlys]LLKLLL-NH2) | – | – | – | permeabilized the outer membrane | – | – | – | – | – | –
3 | CC(C)C[C@H](NC(=O)[C@H](CC(C)C)NC(=O)[C@H](CC(C)C)NC(=O)[C@H](CCCCN)NC(=O)[C@H](CC(C)C)NC(=O)[C@H](CC(C)C)NC(=O)CN(CCCCN)C(=O)[C@H](CC(C)C)NC(=O)[C@H](CC(C)C)NC(=O)CN(CCCCN)C(=O)CNCCCCN)C(N)=O [EB6, kkLLkLLKLLL] (H-[Nlys][Nlys]LL[Nlys]LLKLLL-NH2) | 19 ± 1 µM | very low levels of activity | very strong activities | permeabilized the outer membrane | completely killed | completely killed | strongly depolarized the inner membrane | – | – | –
4 | CC(C)C[C@H](NC(=O)CN(CC(C)C)C(=O)[C@H](CC(C)C)NC(=O)CN(CCCCN)C(=O)[C@H](CC(C)C)NC(=O)CN(CC(C)C)C(=O)[C@H](CCCCN)NC(=O)CN(CC(C)C)C(=O)[C@H](CC(C)C)NC(=O)CN(CCCCN)C(=O)[C@@H](N)CCCCN)C(N)=O [EB9, KkLlKlLkLlL] (H-K[Nlys]L[Nleu]K[Nleu]L[Nlys]L[Nleu]L-NH2) | – | no activity | weak or no vesicle leakage activity; also recorded: inactive | significant outer membrane permeabilization | – | – | partly depolarized the inner membrane | Bacteria could still be detected after 6 h | killed P. aeruginosa, however at a rather slow rate | –
5 | CC(C)CN(CC(N)=O)C(=O)CN(CC(C)C)C(=O)CN(CC(C)C)C(=O)CN(CCCCN)C(=O)CN(CC(C)C)C(=O)CN(CC(C)C)C(=O)CN(CCCCN)C(=O)CN(CC(C)C)C(=O)CN(CC(C)C)C(=O)CN(CCCCN)C(=O)CNCCCCN [EB11, kkllkllklll] (H-[Nlys][Nlys][Nleu][Nleu][Nlys][Nleu][Nleu][Nlys][Nleu][Nleu][Nleu]-NH2) | – | no activity | weak or no vesicle leakage activity | – | – | – | partly depolarized the inner membrane | Bacteria could still be detected after 6 h | killed P. aeruginosa, however at a rather slow rate | significant outer membrane permeabilization
6 | CC(C)C[C@H](NC(=O)[C@H](CC(C)C)NC(=O)[C@H](CC(C)C)NC(=O)[C@@H](CCCCN)NC(=O)[C@H](CC(C)C)NC(=O)[C@H](CC(C)C)NC(=O)[C@@H](CCCCN)NC(=O)[C@H](CC(C)C)NC(=O)[C@H](CC(C)C)NC(=O)[C@@H](CCCCN)NC(=O)[C@H](N)CCCCN)C(N)=O [ln69, kkLLkLLkLLL, reference compound] (H-[dK][dK]LL[dK]LL[dK]LLL-NH2) | 21 ± 3 µM | – | – | – | – | – | – | – | – | –
7 | H-KKLLKLLKLLL-NH2 [ln65, reference compound] | 20 ± 1 µM | – | – | – | – | – | – | – | – | –
